Measured values published in ChEMBL document CHEMBL5728755, “Spirocycle compounds and methods of making and using same” (2021).

Key:
Monoglyceride lipase [1] = biological target: T1, Monoglyceride lipase (Homo sapiens, UniProt Q99685); assay: In Vitro Competitive Activity-Based Protein Profiling: Proteomes (human prefrontal cortex or cell membrane fractions) (50 μL, 1.0 mg/mL total protein concentration) were preincubated with varying concentrations of inhibitors at 37° C. After 30 min, FP-Rh or HT-01 (1.0 μL, 50 μM in DMSO) was added and the mixture was incubated for another 30 min at room temperature. Reactions were quenched with SDS loading buffer (15 μL—4×) and run on SDS-PAGE.
T1 sequence (Q99685 whole entry): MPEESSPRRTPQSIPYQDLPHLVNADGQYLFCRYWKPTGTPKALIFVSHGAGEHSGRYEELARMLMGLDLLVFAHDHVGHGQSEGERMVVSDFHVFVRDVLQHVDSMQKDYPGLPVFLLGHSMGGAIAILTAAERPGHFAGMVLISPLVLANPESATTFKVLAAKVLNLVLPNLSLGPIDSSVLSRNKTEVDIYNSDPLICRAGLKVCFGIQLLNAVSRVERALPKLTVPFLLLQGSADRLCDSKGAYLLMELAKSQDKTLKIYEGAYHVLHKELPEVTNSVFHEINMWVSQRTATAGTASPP

Monoglyceride lipase [2] = biological target: T2, Monoglyceride lipase (Mus musculus, UniProt O35678); assay: Preparation of Mouse Brain Proteomes from Inhibitor Treated Mice: Inhibitors were administered to wild-type C57B1/6J by oral gavage in a vehicle of polyethylene glycol. Each animal was sacrificed 4 h following administration and brain proteomes were prepared and analyzed according to previously established methods (See Niphakis, M. J., et al. (2011) ACS Chem. Neurosci. and Long, J. Z., et al. Nat. Chem. Biol. 5:37-44).
T2 sequence (O35678 whole entry): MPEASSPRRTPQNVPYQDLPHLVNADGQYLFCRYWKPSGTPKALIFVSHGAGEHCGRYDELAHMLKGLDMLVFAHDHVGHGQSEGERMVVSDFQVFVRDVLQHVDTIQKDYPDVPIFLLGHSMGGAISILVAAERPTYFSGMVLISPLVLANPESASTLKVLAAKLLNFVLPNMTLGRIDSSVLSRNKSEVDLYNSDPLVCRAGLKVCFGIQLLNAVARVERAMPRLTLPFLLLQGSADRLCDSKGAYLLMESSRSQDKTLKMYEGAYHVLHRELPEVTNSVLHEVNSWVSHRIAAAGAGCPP

SMILES	IC50 (Monoglyceride lipase [1])	IC50 (Monoglyceride lipase [2])
COCCN(C(=O)C1(c2ncccn2)CC1)C1(C)CCN(C(=O)OC(C(F)(F)F)C(F)(F)F)CC1	< 100 nM	
Cc1c(CN2CCCC23CCN(C(=O)OC(C(F)(F)F)C(F)(F)F)CC3)[nH]c2ccc(Cl)cc12	< 100 nM	< 100 nM
O=C(OC(C(F)(F)F)C(F)(F)F)N1CCC2(CCCN2Cc2cc3cc(Cl)c(Cl)cc3[nH]2)CC1	< 100 nM	
COc1cccc2cc(CN3CCCC34CCN(C(=O)OC(C(F)(F)F)C(F)(F)F)CC4)[nH]c12	< 100 nM	< 100 nM

Continued, values first:

IC50 (Monoglyceride lipase [1])	IC50 (Monoglyceride lipase [2])	SMILES
	< 100 nM	O=C(OC(C(F)(F)F)C(F)(F)F)N1CCC2(CCCN2C(=O)c2cc3ccc(F)cc3s2)CC1
	< 100 nM	Cc1ccc2cc(C(=O)N3CCCC34CCN(C(=O)OC(C(F)(F)F)C(F)(F)F)CC4)sc2c1
